{"source": "patent US7812177B2", "about": "“Potassium channel opener having benzofuroindole skeleton” (Anygen Co., Ltd., priority 2005, dated 2010)", "key": {"[1]": {"target": "T1, rSlo channel (Rattus norvegicus, UniProt Q62976)", "T1 construct": "expressed in transfected cells; host or cells: Xenopus laevis oocytes", "T1 sequence (Q62976 whole entry)": "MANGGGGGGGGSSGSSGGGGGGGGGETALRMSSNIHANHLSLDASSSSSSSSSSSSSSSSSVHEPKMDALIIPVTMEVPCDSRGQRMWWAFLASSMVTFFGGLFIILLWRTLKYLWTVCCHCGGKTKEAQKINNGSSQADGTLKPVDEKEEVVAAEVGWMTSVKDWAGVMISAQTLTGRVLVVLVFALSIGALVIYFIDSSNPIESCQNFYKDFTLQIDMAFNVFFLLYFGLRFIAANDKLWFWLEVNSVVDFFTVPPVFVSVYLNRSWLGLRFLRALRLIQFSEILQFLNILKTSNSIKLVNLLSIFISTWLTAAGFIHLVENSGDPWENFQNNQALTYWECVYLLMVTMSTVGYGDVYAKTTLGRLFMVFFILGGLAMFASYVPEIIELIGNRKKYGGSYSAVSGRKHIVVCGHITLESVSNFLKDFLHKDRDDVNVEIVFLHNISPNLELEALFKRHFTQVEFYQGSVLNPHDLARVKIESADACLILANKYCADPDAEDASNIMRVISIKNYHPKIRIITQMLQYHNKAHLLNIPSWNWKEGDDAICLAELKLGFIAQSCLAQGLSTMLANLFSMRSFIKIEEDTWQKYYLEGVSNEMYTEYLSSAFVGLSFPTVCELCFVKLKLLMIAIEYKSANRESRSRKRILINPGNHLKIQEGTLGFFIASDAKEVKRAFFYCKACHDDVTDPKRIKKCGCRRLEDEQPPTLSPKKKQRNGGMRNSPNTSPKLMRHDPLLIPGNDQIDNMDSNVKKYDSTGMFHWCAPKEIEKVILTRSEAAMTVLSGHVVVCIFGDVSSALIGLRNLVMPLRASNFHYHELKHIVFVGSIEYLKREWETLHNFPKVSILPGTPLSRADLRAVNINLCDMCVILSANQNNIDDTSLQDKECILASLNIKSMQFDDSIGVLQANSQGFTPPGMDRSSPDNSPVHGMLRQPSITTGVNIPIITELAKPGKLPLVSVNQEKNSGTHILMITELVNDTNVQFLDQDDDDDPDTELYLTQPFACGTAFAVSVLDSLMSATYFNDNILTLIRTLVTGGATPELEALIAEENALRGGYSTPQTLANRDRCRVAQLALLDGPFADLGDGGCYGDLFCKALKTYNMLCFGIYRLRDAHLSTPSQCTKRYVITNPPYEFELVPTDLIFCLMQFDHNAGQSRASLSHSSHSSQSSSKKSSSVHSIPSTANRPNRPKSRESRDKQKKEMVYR", "assay": "Concentration dependence on macroscopic rSlo channel activity expressed in Xenopus oocytes, Hill fit", "format": "cell-based", "description": "FIG. 5 illustrates concentration-dependence of compound 22 on BKCa channel. Data points were fitted with Hill equation.\nWe performed experiments to determine the concentration dependence for the effect of compound 22 on macroscopic rSlo channel activity expressed in Xenopus oocytes.\nCurrents were recorded from excised outside-out patches before and after the addition of seven different concentrations of compound 22, from 0 to 300 μM. Channel activity of rSlo was elicited after patch excision with 2 μM intracellular Ca^2+ and increased rapidly with the addition of compound 22. Membrane potential was held at −120 mV and stepped to 50 mV for 50 ms. Relative current differences were determined from the currents of control activated with 2 μM of intracellular Ca^2+ and voltage at 50 mV, normalized with control currents and the obtained data points were fitter with a Hill equation (FIG. 5)."}, "[2]": {"target": "T1, rSlo channel", "assay": "Potentiating effect on rSlo channels at various intracellular Ca2+ concentrations, outside-out patch", "format": "cell-based", "details": "20 μM extracellular", "description": "FIG. 4 illustrates potency of extracellularly applied compound 22 on rSlo channels in various intracellular Ca^2+ concentrations. Representative raw-traces were shown at different intracellular Ca^2+ concentrations. Intracellular Ca^2+ concentration was increased from Ca^2+-free (A), 0.5 μM (B), 1 μM (C) and 2 μM (D). The concentration of compound 22 was 20 μM on the extracellular side.\nTo investigate the potentiating effect of compound 22 on rSlo channels at various intracellular Ca^2+ concentrations, rSlo channels were activated in different concentrations of intracellular Ca^2+.\nExcised outside-out patch configurations were obtained by making a gigaohm seal, rupturing the membrane pulling the pipette from oocytes. Both of the bath and pipette contained symmetrical 124 mM K^+ ions. Voltage pulses were applied to activate rSlo channel currents from −120 mV to 140 mV in 10 mV increments and intracellular Ca^2+ concentrations were used to activate rSlo channel from 0 (Ca^2+-free solution was to chelate with 5 mM EGTA) to 2 μM in intracellular side.\nThe representative raw-traces of rSlo channel activated by membrane voltages and intracellular Ca^2+ (FIG. 4). rSlo channel currents were recorded before and after the addition of 20 μM of compound 22."}, "[3]": {"target": "T2, cloned α subunit of rat BKCa channels, rSlo (Rattus norvegicus, UniProt Q62976)", "T2 construct": "expressed in transfected cells; host or cells: Xenopus laevis oocytes", "T2 sequence (Q62976 whole entry)": "as above", "assay": "Excised outside-out voltage clamp recording, fold increase of BKCa channel currents by extracellularly applied compounds", "format": "cell-based", "details": "extracellular treatment at 20 μM; outside-out patch, Xenopus laevis oocytes expressing rSlo", "description": "FIG. 3 illustrates relative fold-increase of BKCa channel activity by extracellularly applied benzofuroindole analogues of present invention. Bar graphs represent fold increases in BKCa channel currents evoked by extracellular treatment of various compounds at 20 μM.\nThe biological activity of compounds 7˜23 to open BKCa channels and increase the BKCa channel currents was determined by using excised outside-out voltage clamp recording from Xenopus laevis oocytes expressing cloned α subunit of rat BKCa channels, rSlo."}, "[4]": {"target": "BKCa channel (Homo sapiens, UniProt Q12791)", "sequence (Q12791 whole entry)": "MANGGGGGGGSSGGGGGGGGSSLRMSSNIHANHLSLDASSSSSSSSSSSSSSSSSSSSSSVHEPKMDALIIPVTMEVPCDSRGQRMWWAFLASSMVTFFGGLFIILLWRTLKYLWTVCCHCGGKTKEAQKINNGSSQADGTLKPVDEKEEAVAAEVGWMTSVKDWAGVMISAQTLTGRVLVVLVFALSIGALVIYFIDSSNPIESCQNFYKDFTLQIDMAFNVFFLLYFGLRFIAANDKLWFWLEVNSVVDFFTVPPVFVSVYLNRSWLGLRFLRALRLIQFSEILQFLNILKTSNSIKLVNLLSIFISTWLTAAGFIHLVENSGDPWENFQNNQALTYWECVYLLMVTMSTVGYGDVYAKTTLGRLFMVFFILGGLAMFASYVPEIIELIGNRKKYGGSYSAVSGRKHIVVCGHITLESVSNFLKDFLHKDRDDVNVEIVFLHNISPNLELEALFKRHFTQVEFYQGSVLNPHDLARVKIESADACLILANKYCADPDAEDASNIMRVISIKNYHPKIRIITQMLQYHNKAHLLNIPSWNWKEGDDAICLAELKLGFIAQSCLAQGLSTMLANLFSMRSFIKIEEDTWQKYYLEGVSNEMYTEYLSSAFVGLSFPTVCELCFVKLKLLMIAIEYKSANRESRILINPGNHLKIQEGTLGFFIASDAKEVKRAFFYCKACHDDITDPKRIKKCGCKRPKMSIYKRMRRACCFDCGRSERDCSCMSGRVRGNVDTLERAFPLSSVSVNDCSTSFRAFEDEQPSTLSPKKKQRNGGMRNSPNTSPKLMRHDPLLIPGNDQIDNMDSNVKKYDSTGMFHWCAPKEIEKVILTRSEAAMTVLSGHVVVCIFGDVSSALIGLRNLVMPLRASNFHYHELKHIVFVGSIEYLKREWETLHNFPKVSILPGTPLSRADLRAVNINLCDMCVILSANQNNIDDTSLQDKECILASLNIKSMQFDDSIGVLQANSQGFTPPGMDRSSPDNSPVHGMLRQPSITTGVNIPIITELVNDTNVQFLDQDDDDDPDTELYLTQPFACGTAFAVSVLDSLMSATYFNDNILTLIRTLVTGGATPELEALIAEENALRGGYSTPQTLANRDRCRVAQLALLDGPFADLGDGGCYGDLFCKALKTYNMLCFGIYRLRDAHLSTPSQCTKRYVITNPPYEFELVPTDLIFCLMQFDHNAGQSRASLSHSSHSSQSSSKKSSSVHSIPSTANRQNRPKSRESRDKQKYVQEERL", "details": "similar assay system, same concentration (20 μM); cited from earlier work"}, "[5]": {"target": "T1, rSlo channel", "assay": "Concentration-dependence of channel opening, compound applied to the extracellular side of membrane patches", "format": "cell-based", "details": "extracellular application", "source_text": "FIG. 6 illustrates concentration-dependence activity of compound 8 on BKCa channel. FIG. 6A illustrates concentration-dependence activity of rSlo channel. FIG. 6B illustrates concentration-dependence activity of rSlo channel combined with human β1. FIG. 6C illustrates concentration-dependence activity of rSlo channel combined with rat β4 subunit.\n(§1) We then measured the concentration-dependence of compound 8 of the present invention. […] Although we were not able to obtain a concentration of compound 8 higher than 300 μM because of its solubility in water, we noticed that compound 8-induced current increases reached plateau levels at around 100 μM. […] We also measured the effects of compound 8 using inside-out patch configuration to determine whether this compound also affects channel activity from the intracellular side. The intracellular Ca^2+ concentration was fixed at 2 μM to activate rSlo channels, and different concentrations of compound 8 were added to the intracellular side of the membrane."}, "[6]": {"assay": "Solubility in water (highest obtainable concentration)", "format": "physicochemical", "details": "read-out: highest obtainable concentration because of solubility in water", "description": "as §1"}}, "note": "Entries after “also recorded” stand apart in the source; their conditions may differ.", "data": [{"molecule": "O=C(O)c1ccc(Cl)c2c1[nH]c1c3ccc(C(F)(F)F)cc3oc12", "note": "[Compound 22, 4-Chloro-7-trifluoromethyl-10H-benzo[4,5]furo[3,2-b]indole-1-carboxylic acid]", "values": [{"measurement": "effect on rSlo current over concentration range", "setting": "[1]; 50 nM to 300 μM", "result": "enhanced rSlo current in a concentration dependent manner"}, {"measurement": "Kd", "setting": "[1]; 2 μM intracellular Ca2+, step to 50 mV, N=5, read-out: Kd, apparent dissociation constant (Hill fit)", "result": "4.01 ± 0.75", "unit": "µM"}, {"measurement": "reversibility of enhanced rSlo current by washout", "setting": "[2]; all tested intracellular Ca2+ concentrations", "result": "could be removed by washout"}, {"measurement": "effect on rSlo channel current", "setting": "[2]; intracellular Ca2+ from Ca2+-free to 2 μM", "result": "markedly significant effects on rSlo channel current; also recorded: intracellular Ca^2+ concentrations do not affect the potentiating effect"}, {"measurement": "fold increase of BKCa channel currents", "setting": "[3]", "result": "more than 6 fold"}]}, {"molecule": "FC(F)(F)c1ccc2c(c1)oc1c2[nH]c2cc(Cl)cc(Cl)c21", "note": "[Compound 19, 2,4-Dichloro-7-trifluoromethyl-10H-benzo[4,5]furo[3,2-b]indole]", "values": [{"measurement": "fold increase of BKCa channel currents", "setting": "[3]", "result": "activity near to the basal level"}]}, {"molecule": "COc1ccc(Cl)cc1[C@]1(F)C(=O)Nc2cc(C(F)(F)F)ccc21", "note": "[BMS-204352]", "values": [{"measurement": "reported fold increase", "setting": "[4]", "result": "around 1.5"}]}, {"molecule": "O=C(O)c1cc(Cl)cc2c1[nH]c1c3ccc(C(F)(F)F)cc3oc21", "note": "[Compound 23, 3-Chloro-7-trifluoromethyl-10H-benzo[4,5]furo[3,2-b]indole-1-carboxylic acid]", "values": [{"measurement": "fold increase of BKCa channel currents", "setting": "[3]", "result": "close but not better channel opening activity than compound 22"}]}, {"molecule": "COc1ccc(Cl)cc1-c1c(CCO)c(=O)[nH]c2ccc(C(F)(F)F)cc12", "note": "[Compound 2]", "values": [{"measurement": "reported fold increase", "setting": "[4]", "result": "~3.7"}]}, {"molecule": "FC(F)(F)c1ccc2c(c1)oc1c3ccc(Cl)c(Cl)c3[nH]c21", "note": "[Compound 18, 1,2-Dichloro-7-trifluoromethyl-10H-benzo[4,5]furo[3,2-b]indole]", "values": [{"measurement": "fold increase of BKCa channel currents", "setting": "[3]", "result": "activity near to the basal level"}]}, {"molecule": "O=C(O)c1cccc2c1[nH]c1c3ccc(C(F)(F)F)cc3oc21", "note": "[Compound 8, 7-Trifluoromethyl-10H-benzo[4,5]furo[3,2-b]indole-1-carboxylic acid]", "values": [{"measurement": "EC50", "setting": "[5]", "result": "8.9 ± 1.5", "unit": "µM"}, {"measurement": "solubility", "setting": "[6]", "result": "≤ 300", "unit": "µM"}]}]}
